{
  "source": "patent US10550079B2",
  "about": "“Artificial self-sufficient cytochrome P450s” (University of Florida Research Foundation, Incorporated, priority 2015, dated 2020)",
  "key": {"[1]": {"biological_target": "T1, TxtE-BM3R (UniProt C9ZDC6+P14779)", "T1 construct": "P450BM3 (CYP102A1) reductase domain BM3R with its Domcut-predicted native linker, from B. megaterium ATCC 14581 (GenBank J04832.1); made in house; host or cells: E. coli BL21 (DE3)-GOLD", "assay": "Substrate binding affinity by UV-Vis spectral titration, TxtE-BM3R", "design": "species or system S. scabies 87.22 / B. megaterium ATCC 14581", "details": "for binding affinity lowered compared with native substrate L-tryptophan: TxtE-BM3R; for Kd: […] enzyme, 25 mM Tris-HCl pH 8.0, for 4-F-DL-tryptophan total concentration of the racemic mixture used; for binding affinity to TxtE-BM3R compared with TxtE: tighter/higher than to TxtE", "procedure": "(§1) Purified TxtE and its fusion enzymes were spectrally analyzed following a previous protocol (Ding et al. 2008). Briefly, the absorbance spectra (400-600 nm) of TxtE variants (3 M) in Tris-HCl (25 mM, pH 8) buffer were recorded with a Shimadzu UV2700 dual beam UV-Vis spectrophotometer. The ferric heme of enzymes was then saturated with carbon monoxide (Airgas) through bubbling and the spectra of the saturated enzyme solutions were recorded. Immediately, sodium dithionite solution (30 μL, 0.5 M) was added to reduce ferric ion, and reduced spectra were taken subsequently. CO reduced difference spectra of all enzymes were created by subtracting the CO binding spectra from the reduced spectra. Data were further analyzed by GraphPad Prism 4. […] Not more than 10 μl of substrate stock solutions prepared in the above buffer were added to the sample cuvette with an interval of 0.5 μl, and the spectra were recorded from 300 nm to 500 nm each time. The equal volume of buffer was added to the reference cuvette. The changes in absorbance (ΔA) were determined by subtracting the absorbance at ˜420 nm from that at ˜390 nm. Data were then fitted to Michaelis-Menten equation using GraphPad Prism 4.\nas §1, with “previous protocol.” for “previous protocol (Ding et al. 2008).”, “(3 μM)” for “(3 M)”, “to the” for “to Michaelis-Menten”, “equation of ΔA=ΔAmax[L]/(Kd+[L])” for “equation”"}, "[2]": {"biological_target": "T2, TxtE (Streptomyces scabiei, UniProt C9ZDC6)", "design": "inferred from the pET28 vector and Ni-NTA purification) (C); made in house; host or cells: E. coli BL21 (DE3)-GOLD", "details": "previous studies (Barry et al. 2012; Dodani et al. 2014); cited from earlier work"}, "[3]": {"biological_target": "T3, TxtE-BM3R (UniProt C9ZDC6)", "T3 construct": "P450BM3 (CYP102A1) reductase domain BM3R with its Domcut-predicted native linker, from B. megaterium ATCC 14581 (GenBank J04832.1); made in house; host or cells: E. coli BL21 (DE3)-GOLD", "assay": "Substrate binding affinity by UV-Vis spectral titration, TxtE-BM3R", "design": "species or system S. scabies 87.22 / B. megaterium ATCC 14581", "details": "Kd, […] enzyme, 25 mM Tris-HCl pH 8.0; for 4-F-DL-tryptophan total concentration of the racemic mixture used", "procedure": "as §1\nas §1, with “previous protocol.” for “previous protocol (Ding et al. 2008).”, “(3 μM)” for “(3 M)”, “to the” for “to Michaelis-Menten”, “equation of ΔA=ΔAmax[L]/(Kd+[L])” for “equation”"}, "[4]": {"biological_target": "T4, TxtE-RhFRed (Streptomyces scabiei, UniProt C9ZDC6)", "T4 sequence (C9ZDC6 1-406)": "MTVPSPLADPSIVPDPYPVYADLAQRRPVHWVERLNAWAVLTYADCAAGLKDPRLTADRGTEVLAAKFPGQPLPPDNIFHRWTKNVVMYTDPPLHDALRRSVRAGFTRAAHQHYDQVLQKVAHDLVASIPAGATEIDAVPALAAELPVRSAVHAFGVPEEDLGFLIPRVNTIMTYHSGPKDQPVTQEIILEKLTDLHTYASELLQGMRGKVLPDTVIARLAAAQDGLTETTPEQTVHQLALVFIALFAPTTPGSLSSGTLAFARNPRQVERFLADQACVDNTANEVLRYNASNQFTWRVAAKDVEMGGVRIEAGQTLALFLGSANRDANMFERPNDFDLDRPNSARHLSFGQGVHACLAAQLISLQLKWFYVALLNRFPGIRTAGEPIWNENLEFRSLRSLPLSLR", "T4 sequence (Q8KU27 445-773 partner)": "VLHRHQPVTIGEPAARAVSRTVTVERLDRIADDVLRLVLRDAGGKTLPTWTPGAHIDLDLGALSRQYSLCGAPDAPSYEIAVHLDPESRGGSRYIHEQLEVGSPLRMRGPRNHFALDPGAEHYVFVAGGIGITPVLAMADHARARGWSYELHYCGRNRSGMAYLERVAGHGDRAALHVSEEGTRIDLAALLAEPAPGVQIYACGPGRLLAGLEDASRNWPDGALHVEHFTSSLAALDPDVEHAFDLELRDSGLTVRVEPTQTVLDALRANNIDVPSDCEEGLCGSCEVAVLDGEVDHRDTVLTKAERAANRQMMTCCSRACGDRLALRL", "assay": "Substrate binding affinity by UV-Vis spectral titration, TxtE-RhFRed*", "design": "species or system S. scabies 87.22", "details": "[…] enzyme, 25 mM Tris-HCl pH 8.0", "procedure": "as §1, with “The equal volume of buffer was added to the reference cuvette.” left out, “Data were then fitted to Michaelis-Menten equation using GraphPad Prism 4.” left out\n(§2) Purified TxtE and its fusion enzymes were spectrally analyzed following a previous protocol. Briefly, the absorbance spectra (400-600 nm) of TxtE variants (3 μM) in Tris-HCl (25 mM, pH 8) buffer were recorded with a Shimadzu UV2700 dual beam UV-Vis spectrophotometer. […] Data were further analyzed by GraphPad Prism 4. […]"}, "[5]": {"biological_target": "T4, TxtE-RhFRed", "assay": "Substrate binding affinity by UV-Vis spectral titration, TxtE-RhFRed", "design": "species or system S. scabies 87.22", "details": "[…] enzyme, 25 mM Tris-HCl pH 8.0", "procedure": "as §1, with “The equal volume of buffer was added to the reference cuvette.” left out, “Data were then fitted to Michaelis-Menten equation using GraphPad Prism 4.” left out\nas §2"}, "[6]": {"biological_target": "T2, TxtE", "assay": "Substrate binding affinity by UV-Vis spectral titration, wild type TxtE", "design": "inferred from the pET28 vector and Ni-NTA purification) (C); made in house; host or cells: E. coli BL21 (DE3)-GOLD; species or system S. scabies 87.22", "details": "[…] enzyme, 25 mM Tris-HCl pH 8.0", "procedure": "as §1, with “The equal volume of buffer was added to the reference cuvette.” left out, “Data were then fitted to Michaelis-Menten equation using GraphPad Prism 4.” left out\nas §2"}, "[7]": {"biological_target": "T2, TxtE", "assay": "Binding affinities of L-tryptophan and substituted tryptophan analogs (FIG. 29A)", "procedure": "Binding affinities and relative nitration conversions for L-tryptophan and several substituted tryptophan analogs were also assessed (FIGS. 29A-29B). […] Furthermore, the nitration activity of TxtE and TxtEBM3R was assessed. In addition to substrate, enzyme reactions typically contained NADP+, an NADPH regeneration system (glucose and glucose dehydrogenase, GDH), spinach ferredoxin (Fer) and ferredoxin reductase (Frd) as redox partners, and 3-[2-hydroxy-1-(l-methylethyl)-2-nitrosohydrazinyl]-1-propanamine (NOC-5) as an NO donor. Reverse-phase UHPLC coupled with a PDA detector and liquid chromatography-mass spectrometry (LC-MS, ESI positive) was employed to detect the nitrated products (FIG. 29B)."}, "[8]": {"assay": "Stability of NO donor NOC-5 at different pH values and temperatures", "type": "physicochemical", "procedure": "The stability of NO donor NOC-5 was first examined. Its solution was incubated at different pH value (4.5 to 9.5) and temperatures (4 to 65° C.) for 30 min. It was then used as NO donor in the P450 nitration reactions. […] To determine pH effects on the activity of TxtE and TxtEBM3R, enzyme (1.5 μM) reactions were performed in 100 mM Tris-Cl or sodium phosphate with various pH values (4.5 to 9.5) at 20° C., 300 rpm for 30 min. To determine enzyme pH stability, 5 μL of 30 μM enzyme solutions were incubated at buffers with different pH value (4.5 to 9.5). After 15 minutes, other reaction components (95 μL) were mixed to initiate nitration reactions as described above. […] Products were quantitated by HPLC as described above. Conversion rate (%) was calculated by the equation of the area of under the 4-nitro-l-tryptophan peak/the total areas of both substrate and product peaks*100. […]\nThe stability of NO donor NOC-5 was first examined by incubating it in solutions of different pH values (4.5 to 9.5) and temperatures (4 to 65° C.) for 30 min. […] Products were quantitated by HPLC as described above. Peak area was determined with software installed in the Shimadzu Prominence UHPLC system. Conversion rate (%) was calculated as product (nmol)/product+substrate (nmol)×100 based on the standard curves of Trp and 4-NO2-Trp generated. […]"}},
  "note": "“Also recorded” adds a separate entry of the source.",
  "data": [
    {"smiles": "NC(Cc1c[nH]c2cccc(F)c12)C(=O)O", "note": "(racemic) [4-F-DL-tryptophan, 4-F-dl-tryptophan]", "values": [
      {"measurement": "binding affinity lowered compared with native substrate L-tryptophan", "setting": "[1]", "result": "about 8 times"},
      {"measurement": "Kd", "setting": "[1]", "result": "189 ± 11.1", "unit": "µM"},
      {"measurement": "binding affinity to TxtE-BM3R compared with TxtE", "setting": "[1]", "result": "slightly tightened"}
    ]},
    {"smiles": "N[C@@H](Cc1c[nH]c2ccc(F)cc12)C(=O)O", "note": "[5-F-L-tryptophan, 5-F-l-tryptophan]", "values": [
      {"measurement": "binding affinity lowered compared with native substrate L-tryptophan", "setting": "[1]", "result": "~3", "unit": "times"},
      {"measurement": "Kd", "setting": "[1]", "result": "84.2 ± 4.37", "unit": "µM"},
      {"measurement": "Kd", "setting": "[1]; listed as 5-F-l-tryptophan", "result": "84.2 ± 4.4", "unit": "µM"},
      {"measurement": "binding affinity to TxtE-BM3R compared with TxtE", "setting": "[1]", "result": "slightly tightened"}
    ]},
    {"smiles": "N[C@H](Cc1c[nH]c2ccccc12)C(=O)O", "note": "[D-tryptophan]", "values": [
      {"measurement": "spectral changes induced in TxtE solution", "setting": "[2]", "result": "unable to induce spectral changes"}
    ]},
    {"smiles": "N[C@@H](Cc1c[nH]c2ccccc12)C(=O)O", "note": "[L-tryptophan]", "values": [
      {"measurement": "Kd", "setting": "[3]", "result": 20.8, "unit": "µM"},
      {"measurement": "Kd", "setting": "[4]", "result": 24.3, "unit": "µM"},
      {"measurement": "Kd", "setting": "[5]", "result": 18.2, "unit": "µM"},
      {"measurement": "Kd", "setting": "[6]", "result": 24.8, "unit": "µM"}
    ]},
    {"smiles": "N[C@H](CO)Cc1c[nH]c2ccccc12", "note": "[L-tryptophanol]", "values": [
      {"measurement": "binding affinity relative to L-tryptophan (FIG. 29A)", "setting": "[7]", "result": "significantly weakened interactions"}
    ]},
    {"smiles": "CC(C)N(CCCN)/[N+]([O-])=N/O", "note": "[NOC-5, 3-(Aminopropyl)-1-hydroxy-3-isopropyl-2-oxo-1-triazene]", "values": [
      {"measurement": "stability at temperatures higher than 25° C.", "setting": "[8]; 4 to 65° C., 30 min", "result": "decomposed quickly and significantly"},
      {"measurement": "stability at different pH values", "setting": "[8]; pH 4.5 to 9.5, 30 min", "result": "stable in all tested pH values; also recorded: stable over a broad pH range; also recorded: stable at all tested pH values"}
    ]},
    {"smiles": "O=C(O)C(=O)Cc1c[nH]c2ccccc12", "note": "[indole-3-pyruvate]", "values": [
      {"measurement": "binding affinity relative to L-tryptophan (FIG. 29A)", "setting": "[7]", "result": "significantly weakened interactions"}
    ]},
    {"smiles": "C[C@](N)(Cc1c[nH]c2ccccc12)C(=O)O", "note": "[α-Me-Trp]", "values": [
      {"measurement": "binding affinity relative to L-tryptophan (FIG. 29A)", "setting": "[7]", "result": "significantly weakened interactions"}
    ]}
  ]
}
